Test results published in ChEMBL document CHEMBL1938337, “Discovery of novel, potent, and selective inhibitors of 3-phosphoinositide-dependent kinase (PDK1)” (J Med Chem, 2011).
Converted amounts (≈) assume the structure as drawn.

Assays:
[1] = Solubility of the compound at pH 6.5; type: physicochemical; conditions: buffer
[2] = molecular target: Serine/threonine-protein kinase Chk2 (Homo sapiens) (UniProt O96017); experiment: Inhibition of CHEK2 at 1 uM
[3] = molecular target: Serine/threonine-protein kinase MARK1 (Homo sapiens, UniProt Q9P0L2); experiment: Inhibition of MARK1 at 1 uM
Serine/threonine-protein kinase MARK1, sequence (Q9P0L2 whole entry, looked up): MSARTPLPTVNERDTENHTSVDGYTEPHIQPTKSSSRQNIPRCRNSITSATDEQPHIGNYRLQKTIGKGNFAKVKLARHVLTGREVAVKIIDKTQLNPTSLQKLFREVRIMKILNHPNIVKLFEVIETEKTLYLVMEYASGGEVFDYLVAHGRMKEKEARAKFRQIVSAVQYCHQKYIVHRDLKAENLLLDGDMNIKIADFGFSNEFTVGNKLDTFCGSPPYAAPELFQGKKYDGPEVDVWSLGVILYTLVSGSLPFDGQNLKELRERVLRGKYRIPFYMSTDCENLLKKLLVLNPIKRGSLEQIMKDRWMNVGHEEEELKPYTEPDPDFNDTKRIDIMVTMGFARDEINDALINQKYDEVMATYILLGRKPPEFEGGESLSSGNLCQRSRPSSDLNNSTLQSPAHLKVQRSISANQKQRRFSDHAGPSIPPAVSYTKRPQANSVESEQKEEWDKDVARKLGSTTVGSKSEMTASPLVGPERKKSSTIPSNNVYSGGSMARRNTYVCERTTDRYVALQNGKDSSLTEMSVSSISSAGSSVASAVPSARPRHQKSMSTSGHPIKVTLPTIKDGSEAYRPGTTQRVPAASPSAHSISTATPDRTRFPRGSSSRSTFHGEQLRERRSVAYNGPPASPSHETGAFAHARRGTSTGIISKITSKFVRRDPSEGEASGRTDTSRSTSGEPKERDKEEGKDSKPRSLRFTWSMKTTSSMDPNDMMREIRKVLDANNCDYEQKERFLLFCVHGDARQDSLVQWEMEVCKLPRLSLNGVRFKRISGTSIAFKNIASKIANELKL

[4] = molecular target: T1, Aurora kinase A (Homo sapiens) (UniProt O14965); experiment: Inhibition of STK6 at 1 uM
T1 sequence (whole entry): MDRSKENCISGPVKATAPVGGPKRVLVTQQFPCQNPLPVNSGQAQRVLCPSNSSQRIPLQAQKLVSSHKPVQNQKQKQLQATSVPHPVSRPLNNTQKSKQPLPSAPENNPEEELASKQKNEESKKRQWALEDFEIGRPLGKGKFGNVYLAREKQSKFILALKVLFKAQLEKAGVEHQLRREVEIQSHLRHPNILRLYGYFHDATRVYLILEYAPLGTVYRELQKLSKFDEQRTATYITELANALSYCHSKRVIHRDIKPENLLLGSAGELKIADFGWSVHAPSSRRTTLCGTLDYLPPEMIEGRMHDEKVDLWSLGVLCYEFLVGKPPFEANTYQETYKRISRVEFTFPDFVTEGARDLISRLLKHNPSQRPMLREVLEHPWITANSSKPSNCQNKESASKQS

[5] = molecular target: T2, High affinity nerve growth factor receptor (Homo sapiens, UniProt P04629); experiment: Inhibition of NTRK1 at 1 uM
Target sequence in this assay (P04629 33-796 limits assumed): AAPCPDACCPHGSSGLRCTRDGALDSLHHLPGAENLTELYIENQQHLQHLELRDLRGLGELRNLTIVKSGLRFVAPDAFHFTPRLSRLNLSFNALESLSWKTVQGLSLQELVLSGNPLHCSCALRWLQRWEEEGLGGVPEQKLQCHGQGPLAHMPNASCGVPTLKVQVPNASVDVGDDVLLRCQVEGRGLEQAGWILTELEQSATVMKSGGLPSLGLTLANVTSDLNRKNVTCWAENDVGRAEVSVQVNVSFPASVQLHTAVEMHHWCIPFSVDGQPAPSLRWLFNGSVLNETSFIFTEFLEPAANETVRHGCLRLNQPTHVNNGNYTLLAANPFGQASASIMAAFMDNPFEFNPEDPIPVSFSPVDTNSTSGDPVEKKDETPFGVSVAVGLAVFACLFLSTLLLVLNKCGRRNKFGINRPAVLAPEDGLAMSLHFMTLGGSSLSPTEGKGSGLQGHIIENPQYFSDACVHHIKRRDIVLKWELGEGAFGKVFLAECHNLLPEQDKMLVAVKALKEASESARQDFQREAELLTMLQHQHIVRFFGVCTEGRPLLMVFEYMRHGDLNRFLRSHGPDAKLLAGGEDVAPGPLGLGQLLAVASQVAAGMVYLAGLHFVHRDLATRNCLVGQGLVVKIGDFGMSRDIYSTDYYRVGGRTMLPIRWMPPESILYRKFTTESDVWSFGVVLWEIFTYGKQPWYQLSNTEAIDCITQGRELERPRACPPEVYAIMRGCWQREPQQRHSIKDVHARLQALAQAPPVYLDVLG

[6] = molecular target: cAMP-dependent protein kinase catalytic subunit alpha (Homo sapiens) (UniProt P17612); experiment: Inhibition of PRKACA at 1 uM
[7] = molecular target: RAC-alpha serine/threonine-protein kinase (Homo sapiens, UniProt P31749); experiment: Inhibition of AKT1 at 1 uM
RAC-alpha serine/threonine-protein kinase, sequence (P31749 whole entry): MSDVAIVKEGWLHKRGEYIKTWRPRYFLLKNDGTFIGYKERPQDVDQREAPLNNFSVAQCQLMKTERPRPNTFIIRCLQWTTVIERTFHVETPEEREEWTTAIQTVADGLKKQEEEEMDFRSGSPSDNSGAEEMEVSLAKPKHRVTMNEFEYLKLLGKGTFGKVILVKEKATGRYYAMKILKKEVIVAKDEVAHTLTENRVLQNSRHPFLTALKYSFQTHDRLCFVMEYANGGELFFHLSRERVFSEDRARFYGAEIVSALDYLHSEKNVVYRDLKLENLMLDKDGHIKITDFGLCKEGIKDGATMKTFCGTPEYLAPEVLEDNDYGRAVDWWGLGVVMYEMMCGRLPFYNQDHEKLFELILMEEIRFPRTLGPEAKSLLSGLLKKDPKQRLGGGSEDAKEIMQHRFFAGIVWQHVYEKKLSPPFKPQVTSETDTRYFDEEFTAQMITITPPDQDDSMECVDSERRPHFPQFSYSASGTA

[8] = molecular target: Cyclin-dependent kinase 2/cyclin A (Homo sapiens) (UniProt P24941+P20248+P78396); experiment: Inhibition of CDK2/cyclinA at 1 uM; type: protein-complex assay
[9] = molecular target: Proto-oncogene tyrosine-protein kinase Src (Homo sapiens) (UniProt P12931); experiment: Inhibition of SRC at 1 uM
Proto-oncogene tyrosine-protein kinase Src (Homo sapiens), sequence (P12931 2-536 limits assumed): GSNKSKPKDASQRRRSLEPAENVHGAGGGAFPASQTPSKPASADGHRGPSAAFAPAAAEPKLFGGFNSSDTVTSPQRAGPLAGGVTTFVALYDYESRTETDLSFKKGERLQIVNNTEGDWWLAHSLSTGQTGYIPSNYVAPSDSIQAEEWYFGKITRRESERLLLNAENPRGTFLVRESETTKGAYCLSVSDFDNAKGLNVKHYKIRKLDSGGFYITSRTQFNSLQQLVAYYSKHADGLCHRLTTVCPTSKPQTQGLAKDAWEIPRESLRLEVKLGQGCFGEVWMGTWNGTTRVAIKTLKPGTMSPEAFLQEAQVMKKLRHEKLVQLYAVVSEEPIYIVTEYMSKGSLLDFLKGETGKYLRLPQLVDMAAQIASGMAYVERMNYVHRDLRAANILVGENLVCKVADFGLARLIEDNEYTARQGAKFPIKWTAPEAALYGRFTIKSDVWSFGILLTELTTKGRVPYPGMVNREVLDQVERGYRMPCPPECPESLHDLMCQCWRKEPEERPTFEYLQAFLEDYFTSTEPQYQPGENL

[10] = molecular target: T3, Tyrosine-protein kinase JAK3 (Homo sapiens) (UniProt P52333); experiment: Inhibition of JAK3 at 1 uM
T3 sequence (whole entry): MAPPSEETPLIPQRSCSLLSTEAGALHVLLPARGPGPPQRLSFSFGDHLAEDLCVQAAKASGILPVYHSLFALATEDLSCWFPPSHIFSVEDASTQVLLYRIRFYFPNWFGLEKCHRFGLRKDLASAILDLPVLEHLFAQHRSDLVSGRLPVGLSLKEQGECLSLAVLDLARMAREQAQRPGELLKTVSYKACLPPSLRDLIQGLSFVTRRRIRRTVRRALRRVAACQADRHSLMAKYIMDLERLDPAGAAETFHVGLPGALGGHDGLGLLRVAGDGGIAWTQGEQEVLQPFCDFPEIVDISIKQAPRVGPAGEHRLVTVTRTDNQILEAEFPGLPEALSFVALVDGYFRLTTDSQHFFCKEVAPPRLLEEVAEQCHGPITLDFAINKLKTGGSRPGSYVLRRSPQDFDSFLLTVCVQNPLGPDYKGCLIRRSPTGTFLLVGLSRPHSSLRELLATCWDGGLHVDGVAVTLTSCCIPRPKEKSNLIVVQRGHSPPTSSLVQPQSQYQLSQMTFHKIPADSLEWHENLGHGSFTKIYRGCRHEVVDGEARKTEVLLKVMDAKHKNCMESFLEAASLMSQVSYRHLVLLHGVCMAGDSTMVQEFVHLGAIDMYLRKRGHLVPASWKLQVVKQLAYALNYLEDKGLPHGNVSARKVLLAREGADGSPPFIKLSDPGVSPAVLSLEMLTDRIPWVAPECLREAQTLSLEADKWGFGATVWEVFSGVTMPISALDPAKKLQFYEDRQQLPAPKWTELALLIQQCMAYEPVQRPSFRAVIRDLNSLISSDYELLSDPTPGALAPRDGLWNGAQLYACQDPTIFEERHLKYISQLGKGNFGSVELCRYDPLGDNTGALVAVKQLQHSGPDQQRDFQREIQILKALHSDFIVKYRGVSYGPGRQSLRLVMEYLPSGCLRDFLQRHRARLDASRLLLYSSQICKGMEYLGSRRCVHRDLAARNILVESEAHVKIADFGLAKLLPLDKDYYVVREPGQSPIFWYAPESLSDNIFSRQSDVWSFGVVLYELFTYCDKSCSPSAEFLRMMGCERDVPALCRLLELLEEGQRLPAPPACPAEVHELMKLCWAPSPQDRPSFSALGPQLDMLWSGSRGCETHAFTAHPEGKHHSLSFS

[11] = Inhibition of PRKCB2 at 1 uM
[12] = molecular target: T4, Serine/threonine-protein kinase 3 (Homo sapiens) (UniProt Q13188); experiment: Inhibition of STK3 at 1 uM
T4 sequence (whole entry): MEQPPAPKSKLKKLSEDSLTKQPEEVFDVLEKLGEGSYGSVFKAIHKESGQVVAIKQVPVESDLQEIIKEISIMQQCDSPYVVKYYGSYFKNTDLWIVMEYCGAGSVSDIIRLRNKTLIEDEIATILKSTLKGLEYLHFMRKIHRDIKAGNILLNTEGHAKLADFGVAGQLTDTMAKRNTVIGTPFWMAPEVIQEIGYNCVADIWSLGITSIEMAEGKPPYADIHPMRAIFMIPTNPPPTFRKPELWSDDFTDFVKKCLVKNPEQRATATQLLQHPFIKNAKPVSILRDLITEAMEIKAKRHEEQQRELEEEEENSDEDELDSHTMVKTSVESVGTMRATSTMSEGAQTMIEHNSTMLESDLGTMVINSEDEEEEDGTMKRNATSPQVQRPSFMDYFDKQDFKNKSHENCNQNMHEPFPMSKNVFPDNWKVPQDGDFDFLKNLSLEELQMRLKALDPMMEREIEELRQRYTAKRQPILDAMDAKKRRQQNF

[13] = molecular target: Serine/threonine-protein kinase pim-2 (Homo sapiens) (UniProt Q9P1W9); experiment: Inhibition of PIM2 at 1 uM
Serine/threonine-protein kinase pim-2 (Homo sapiens), sequence (Q9P1W9 whole entry, looked up): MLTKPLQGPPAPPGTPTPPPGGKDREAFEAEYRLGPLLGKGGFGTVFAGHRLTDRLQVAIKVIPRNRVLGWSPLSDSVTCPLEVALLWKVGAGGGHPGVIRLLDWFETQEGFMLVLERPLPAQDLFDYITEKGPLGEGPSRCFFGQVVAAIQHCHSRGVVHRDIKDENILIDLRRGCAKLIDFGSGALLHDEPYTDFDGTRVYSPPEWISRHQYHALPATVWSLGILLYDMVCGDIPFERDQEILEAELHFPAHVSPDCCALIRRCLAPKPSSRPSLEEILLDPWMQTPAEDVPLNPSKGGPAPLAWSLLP

[14] = Inhibition of p38 at 1 uM
[15] = molecular target: Casein kinase II subunit alpha' (Homo sapiens) (UniProt P19784); experiment: Inhibition of CSNK2A2 at 1 uM
Casein kinase II subunit alpha' (Homo sapiens), sequence (P19784 whole entry, looked up): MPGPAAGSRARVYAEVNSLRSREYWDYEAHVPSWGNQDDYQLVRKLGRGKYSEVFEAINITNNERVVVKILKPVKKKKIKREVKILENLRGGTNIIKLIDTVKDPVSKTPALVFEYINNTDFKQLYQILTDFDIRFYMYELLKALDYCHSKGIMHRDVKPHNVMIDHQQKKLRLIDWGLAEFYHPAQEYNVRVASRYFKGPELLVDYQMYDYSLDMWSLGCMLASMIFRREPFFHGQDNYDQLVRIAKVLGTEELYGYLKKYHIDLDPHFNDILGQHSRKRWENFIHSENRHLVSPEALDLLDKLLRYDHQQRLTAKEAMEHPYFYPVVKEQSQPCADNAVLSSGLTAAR

[16] = molecular target: Serine/threonine-protein kinase 26 (Homo sapiens) (UniProt Q9P289); experiment: Inhibition of MST4 at 1 uM
Serine/threonine-protein kinase 26 (Homo sapiens), sequence (Q9P289 2-416 limits assumed): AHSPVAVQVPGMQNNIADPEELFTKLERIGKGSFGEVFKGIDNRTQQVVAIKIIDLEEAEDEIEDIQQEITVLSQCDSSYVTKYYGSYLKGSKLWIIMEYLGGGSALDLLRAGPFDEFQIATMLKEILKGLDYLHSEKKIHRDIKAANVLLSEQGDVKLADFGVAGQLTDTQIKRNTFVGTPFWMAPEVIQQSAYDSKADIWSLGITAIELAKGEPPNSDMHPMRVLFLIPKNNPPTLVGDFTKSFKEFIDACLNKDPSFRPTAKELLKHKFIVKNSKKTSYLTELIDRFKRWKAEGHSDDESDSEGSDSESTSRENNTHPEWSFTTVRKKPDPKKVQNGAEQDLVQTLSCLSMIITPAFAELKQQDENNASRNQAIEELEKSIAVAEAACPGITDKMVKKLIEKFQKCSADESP

[17] = molecular target: Rho-associated protein kinase 1 (Homo sapiens) (UniProt Q13464); experiment: Inhibition of ROCK1 at 1 uM
Rho-associated protein kinase 1 (Homo sapiens), sequence (Q13464 2-1354 limits assumed): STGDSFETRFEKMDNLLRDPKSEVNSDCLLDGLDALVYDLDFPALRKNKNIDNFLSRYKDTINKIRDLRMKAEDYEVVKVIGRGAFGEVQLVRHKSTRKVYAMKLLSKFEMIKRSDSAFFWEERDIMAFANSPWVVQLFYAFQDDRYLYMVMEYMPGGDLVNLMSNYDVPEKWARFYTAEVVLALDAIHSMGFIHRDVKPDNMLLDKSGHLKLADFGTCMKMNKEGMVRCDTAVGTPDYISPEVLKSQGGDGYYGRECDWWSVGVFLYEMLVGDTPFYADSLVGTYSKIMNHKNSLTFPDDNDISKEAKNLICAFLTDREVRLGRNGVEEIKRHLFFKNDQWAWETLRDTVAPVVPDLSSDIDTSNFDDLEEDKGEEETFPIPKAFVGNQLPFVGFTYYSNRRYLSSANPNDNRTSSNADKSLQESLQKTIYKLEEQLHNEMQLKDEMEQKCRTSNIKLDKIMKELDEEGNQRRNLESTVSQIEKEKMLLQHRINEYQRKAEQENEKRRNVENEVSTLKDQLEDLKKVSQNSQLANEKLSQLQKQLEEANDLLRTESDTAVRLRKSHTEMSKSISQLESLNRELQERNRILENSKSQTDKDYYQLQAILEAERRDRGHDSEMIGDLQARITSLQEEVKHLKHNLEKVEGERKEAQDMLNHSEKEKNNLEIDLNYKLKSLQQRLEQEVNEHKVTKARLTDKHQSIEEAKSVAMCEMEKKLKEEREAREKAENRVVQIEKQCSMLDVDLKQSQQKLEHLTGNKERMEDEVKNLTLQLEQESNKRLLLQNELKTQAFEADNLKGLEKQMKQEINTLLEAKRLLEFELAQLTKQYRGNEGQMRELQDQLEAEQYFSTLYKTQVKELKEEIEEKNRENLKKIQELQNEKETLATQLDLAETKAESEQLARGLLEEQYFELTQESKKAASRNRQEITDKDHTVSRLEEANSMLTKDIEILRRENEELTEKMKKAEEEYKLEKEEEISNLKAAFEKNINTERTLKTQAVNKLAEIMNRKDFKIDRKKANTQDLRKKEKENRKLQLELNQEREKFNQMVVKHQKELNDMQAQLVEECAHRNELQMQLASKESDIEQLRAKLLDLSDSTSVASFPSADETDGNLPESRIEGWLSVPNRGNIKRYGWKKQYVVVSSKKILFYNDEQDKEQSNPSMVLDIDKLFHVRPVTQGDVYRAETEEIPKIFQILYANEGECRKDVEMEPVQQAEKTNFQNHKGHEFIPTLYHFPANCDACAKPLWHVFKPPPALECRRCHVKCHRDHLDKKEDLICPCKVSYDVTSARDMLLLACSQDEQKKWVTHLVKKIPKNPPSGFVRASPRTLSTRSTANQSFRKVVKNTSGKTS

Aurora kinase A = molecular target: T5, Aurora kinase A (Homo sapiens, UniProt O14965); experiment: Inhibition of Aurora A
T5 sequence (O14965 whole entry): T1 sequence (whole entry)

[18] = molecular target: T2, High affinity nerve growth factor receptor; experiment: Inhibition of TrkA

| solubility [1] [µM] | inhibition [2] [%] | inhibition [3] [%] | inhibition [4] [%] | inhibition [5] [%] | inhibition [6] [%] | inhibition [7] [%] | inhibition [8] [%] | inhibition [9] [%] | inhibition [10] [%] | inhibition [11] [%] | inhibition [12] [%] | inhibition [13] [%] | inhibition [14] [%] | inhibition [15] [%] | inhibition [16] [%] | inhibition [17] [%] | IC50 (Aurora kinase A) [nM] | IC50 [18] [nM] | SMILES |
| --- | --- | --- | --- | --- | --- | --- | --- | --- | --- | --- | --- | --- | --- | --- | --- | --- | --- | --- | --- |
| 510 (≈ 247 µg/mL) | 94 | 47 | 54 | 59 | 30 | 15 | 12 | 14 | -2 | 1 | 0 | -2 | 0 | 2 | -6 | -5 | 820 | 910 | CC(=O)N1CC[C@@H](Nc2cncc(C(=O)c3cn(C(C)C)c4ncnc(N)c34)n2)[C@H]1c1ccccc1 |
| 390 (≈ 196 µg/mL) | 99 | 74 | 80 | 63 | 58 | 57 | 34 | 21 | 6 | 15 | 12 | 7 | -1 | 8 | 8 | 5 | 460 | 620 | CC(=O)N1CC[C@@H](Nc2cncc(C(=O)c3cn(C(C)C)c4ncnc(N)c34)n2)[C@H]1c1ccc(F)cc1 |
| 290 (≈ 142 µg/mL) | 98 | 84 | 81 | 74 | 74 | 62 | 44 | 29 | 16 | 14 | 13 | 9 | 6 | 4 | 4 | 4 | 140 | 200 | CC(C)n1cc(C(=O)c2cncc(N[C@@H]3CCN(C=O)[C@@H]3c3ccc(F)cc3)n2)c2c(N)ncnc21 |
